Laboratory results: ChEMBL document CHEMBL1135124, “Novel bicyclic oxazolone derivatives as anti-angiogenic agents” (Bioorg Med Chem Lett, 2002)

Columns and labels:
[1] = system: A-431; test: Inhibitory activity against proliferation of human epidermoid carcinoma (A431) cells; type: functional, cell-based
[2] = species: Gallus gallus; test: Anti-angiogenic activity was assessed by inhibition of the vascular growth in the chick embryo chorioallantoic membrane (CAM assay) at 125 nM; type: functional, tissue-based
[3] = system: L1210; test: Inhibitory activity against proliferation of murine leukemia (L1210) cells; type: functional, cell-based; conditions: Mus musculus

Structure (SMILES) | IC50 [1] [µM] | IC50 [3] [µM] | inhibition [2] [%]
CO[C@@H]1[C@H](OC(=O)/C=C/C=C/C=C/C=C/C(=O)O)CC[C@]2(CO2)[C@H]1[C@@]1(C)O[C@@H]1CC=C(C)C [FUMAGILLIN] | 5 | 8 | 85
CCCCCC#C[C@@]1(C)O[C@@H]2OC(=O)N(C(=O)CCl)[C@@H]2C[C@H]1O | 75 | > 100 | 25
COC#C[C@@]1(C)O[C@@H]2OC(=O)N(C(=O)CCl)[C@@H]2CC1=O | 64 | 74 | 60
CCCCCCC[C@H]1O[C@@H]2OC(=O)N(C(=O)CCl)[C@@H]2CC1=O | 79 | 96 | 87
CCCCCCC[C@@]1(C)O[C@@H]2OC(=O)N(C(=O)CCl)[C@@H]2CC1=O | 78 | 28 | 60
C[C@]1(C#CCCCCc2ccccc2)O[C@@H]2OC(=O)N(C(=O)CCl)[C@@H]2CC1=O | 56 | 27 | 60
CCCCCC#C[C@@]1(C)O[C@@H]2OC(=O)N(C(=O)CCl)[C@@H]2C[C@@H]1O | 52 | > 100 | 40
CCCCC/C=C/[C@@]1(C)O[C@@H]2OC(=O)N(C(=O)CCl)[C@@H]2CC1=O | 81 | 81 | 50
CCCCCC#C[C@@]1(C)O[C@@H]2OC(=O)N(C(=O)CCl)[C@@H]2CC1=O | 47 | 31 | 70

Continued, in another order:

IC50 [1] [µM] | IC50 [3] [µM] | Structure (SMILES) | inhibition [2] [%]
33 | 22 | CCCCCC1OC1[C@@]1(C)O[C@@H]2OC(=O)N(C(=O)CCl)[C@@H]2C[C@]12CO2 (stereo partly drawn) | 19
116 | 193 | CCCCCC1OC1[C@@]1(C)O[C@@H]2OC(=O)N(C(=O)CCl)[C@@H]2CC1=O (stereo partly drawn) | 58
93 | 89 | CCCCCC1OC1[C@@]1(C)O[C@@H]2OC(=O)N(C(=O)CCl)[C@@H]2C[C@@]12CO2 (stereo partly drawn) | 
5 | 32 | CCCCCC#C[C@]1(C)O[C@@H]2OC(=O)N(C(=O)CCl)[C@@H]2CC1=O | 50
